Earlier results in patent US20040214861A1, “Compositions of a cyclooxygenase-2 selective inhibitors and 5-HT1B1D antagonists for the treatment and prevention of migraine” (Pharmacia Corporation, priority 2003, published 2004).

Settings: at one and two hours after administration; compared with sumatriptan

In the case of `CN1CCC[C@@H]1Cc1c[nH]c2ccc(CCS(=O)(=O)c3ccccc3)cc12` [eletriptan], the effectiveness after administration is given as “greater effectiveness at one and two hours after administration than sumatriptan”.
